Results from patent US5369120A, “Pharmaceutical composition of 7-((substituted)amino-8-((substituted)carbonyl)-(methylamino)-1-oxasp iro(4,5)decanes and L-dopa” (Warner-Lambert Company, priority 1993, dated 1994).

Tested on: rats rendered Parkinsonian by injection of reserpine
Experiment: locomotor activity and rigidity in reserpine-treated Parkinsonian rats
Format: in vivo, rat
Details: reserpine (4 mg/kg) rats; L-DOPA 80 mg/kg intraperitoneal, subthreshold dose

## N[C@@H](Cc1ccc(O)c(O)c1)C(=O)O [L-DOPA, 3-(3,4-dihydroxyphenyl)L-alanine]
  Locomotor scores: very low locomotor scores
